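Method: 48-hour compound exposure of cells in 96-well plates, five concentrations, linear interpolation of endpoints. Abbreviation: GI50, concentration required for 50% inhibition of growth. TGI marks complete inhibition of growth.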
What was measured:
Assay in all cases: NCI anticancer screen, dose series, 48 h
[1] = test system: SK-MEL-28 melanoma
[2] = test system: MALME-3M melanoma
[3] = test system: SW-620 colon
[4] = test system: DU-145 prostate
[5] = test system: SF-268 CNS
[6] = test system: EKVX NSCLC
[7] = test system: RXF 393 renal
[8] = test system: A549 NSCLC
[9] = test system: HOP-92 NSCLC
[10] = test system: NCI-H460 lung
[11] = test system: HCT-15 colon
[12] = test system: OVCAR-3 ovarian
[13] = test system: IGROV1 ovarian
[14] = test system: UO-31 renal
[15] = test system: U251 CNS
[16] = test system: ACHN renal
[17] = test system: CCRF-CEM leukemia
[18] = test system: T-47D breast
[19] = test system: SF-295 CNS
[20] = test system: PC-3 prostate
[21] = test system: HCC-2998 colon
[22] = test system: CAKI-1 renal
[23] = test system: MCF7 breast
[24] = test system: SK-MEL-2 melanoma
[25] = test system: SF-539 CNS
[26] = test system: SNB-75 CNS
[27] = test system: UACC-62 melanoma
[28] = test system: OVCAR-4 ovarian
[29] = test system: TK-10 renal
[30] = test system: HT29 colon
[31] = test system: HS 578T breast
[32] = test system: OVCAR-5 ovarian
[33] = test system: LOX IMVI melanoma
[34] = test system: UACC-257 melanoma
[35] = test system: NCI-H23 lung
[36] = test system: MDA-MB-231 breast
[37] = test system: NCI/ADR-RES ovarian
[38] = test system: MDA-MB-435
[39] = test system: OVCAR-8 ovarian
[40] = test system: HOP-62 NSCLC
[41] = test system: SK-MEL-5 melanoma
[42] = test system: 786-0 renal
[43] = test system: COLO 205 colon
[44] = test system: SK-OV-3 ovarian
[45] = test system: NCI-H522 lung
[46] = test system: KM12 colon
[47] = test system: HCT-116 colon
[48] = test system: M14 melanoma
[49] = test system: RPMI-8226 leukemia
[50] = test system: SNB-19 CNS
[51] = test system: NCI-H226 lung
[52] = test system: HL-60(TB) leukemia
[53] = test system: SN12C renal
[54] = test system: K-562 leukemia
[55] = test system: SR leukemia

CCC(=O)OC1CCC2C3CCC(=O)OC3C(C)(CCC(=O)O)CC12C (centres undefined)
GI50 [1]: 3.81 µM
TGI [1]: > 100 µM
GI50 [2]: 2.76 µM
TGI [2]: > 100 µM
GI50 [3]: 2.87 µM
TGI [3]: > 100 µM
GI50 [4]: 3.59 µM
TGI [4]: 19.1 µM
GI50 [5]: 3.6 µM
TGI [5]: > 100 µM
GI50 [6]: 2.08 µM
TGI [6]: > 100 µM
GI50 [7]: 0.617 µM
TGI [7]: > 100 µM
GI50 [8]: 3.81 µM
TGI [8]: > 100 µM
GI50 [9]: 0.997 µM
TGI [9]: 4.76 µM
GI50 [10]: 2.04 µM
TGI [10]: > 100 µM
GI50 [11]: 2.83 µM
TGI [11]: > 100 µM
GI50 [12]: 2.16 µM
TGI [12]: 10.5 µM
GI50 [13]: 2.47 µM
TGI [13]: 16.2 µM
GI50 [14]: 0.494 µM
TGI [14]: > 100 µM
GI50 [15]: 3.11 µM
TGI [15]: 45.3 µM
GI50 [16]: 4.74 µM
TGI [16]: > 100 µM
GI50 [17]: 0.374 µM
TGI [17]: > 100 µM
GI50 [18]: 0.929 µM
TGI [18]: 6.16 µM
GI50 [19]: 1.16 µM
TGI [19]: 2.68 µM
GI50 [20]: 2.36 µM
TGI [20]: > 100 µM
GI50 [21]: 3.53 µM
TGI [21]: > 100 µM
GI50 [22]: 3.22 µM
TGI [22]: 15.9 µM
GI50 [23]: 1.61 µM
TGI [23]: > 100 µM
GI50 [24]: 1.86 µM
TGI [24]: > 100 µM
GI50 [25]: 2.1 µM
TGI [25]: 17.4 µM
GI50 [26]: 2.87 µM
TGI [26]: > 100 µM
GI50 [27]: 3 µM
TGI [27]: > 100 µM
GI50 [28]: 6.61 µM
TGI [28]: > 100 µM
GI50 [29]: 3.46 µM
TGI [29]: 21.9 µM
GI50 [30]: 3.86 µM
TGI [30]: > 100 µM
GI50 [31]: 1.63 µM
TGI [31]: 7.93 µM
GI50 [32]: 5.6 µM
TGI [32]: > 100 µM
GI50 [33]: 3.87 µM
TGI [33]: > 100 µM
GI50 [34]: 5.73 µM
TGI [34]: > 100 µM
GI50 [35]: 3.35 µM
TGI [35]: > 100 µM
GI50 [36]: 1.45 µM
TGI [36]: 6.28 µM
GI50 [37]: 2.54 µM
TGI [37]: > 100 µM
GI50 [38]: 2.24 µM
TGI [38]: 13.2 µM
GI50 [39]: 3.49 µM
TGI [39]: > 100 µM
GI50 [40]: 7.49 µM
TGI [40]: > 100 µM
GI50 [41]: 3.9 µM
TGI [41]: > 100 µM
GI50 [42]: 5.49 µM
TGI [42]: > 100 µM
GI50 [43]: 3.48 µM
TGI [43]: 69.1 µM
GI50 [44]: 2.47 µM
TGI [44]: > 100 µM
GI50 [45]: 2.08 µM
TGI [45]: > 100 µM
GI50 [46]: 2.59 µM
TGI [46]: > 100 µM
GI50 [47]: 3.62 µM
TGI [47]: > 100 µM
GI50 [48]: 3.59 µM
TGI [48]: > 100 µM

CC(O)CCc1ccc(Oc2c3ccccc3nc3occc23)cc1 (centres undefined)
GI50 [1]: 12.3 µM
TGI [1]: 25.1 µM
GI50 [4]: 16.6 µM
TGI [4]: 32.2 µM
GI50 [5]: 11 µM
TGI [5]: 29.6 µM
GI50 [7]: 3.2 µM
TGI [7]: 8.89 µM
GI50 [8]: 4.22 µM
TGI [8]: 17.6 µM
GI50 [10]: 4.02 µM
TGI [10]: 16.8 µM
GI50 [12]: 4.4 µM
TGI [12]: 26.7 µM
GI50 [13]: 17.7 µM
TGI [13]: 56.9 µM
GI50 [14]: 14.2 µM
TGI [14]: > 100 µM
GI50 [15]: 18.1 µM
TGI [15]: 33.8 µM
GI50 [49]: 4.91 µM
TGI [49]: > 100 µM
GI50 [17]: 9.41 µM
TGI [17]: 34.8 µM
GI50 [18]: 1.28 µM
TGI [18]: 10.9 µM
GI50 [50]: 13.5 µM
TGI [50]: 33 µM
GI50 [51]: 3.84 µM
TGI [51]: 16.8 µM
GI50 [52]: 1.78 µM
TGI [52]: 9.69 µM
GI50 [19]: 4.51 µM
TGI [19]: 17.1 µM
GI50 [20]: 5.39 µM
TGI [20]: 21.7 µM
GI50 [53]: 10.9 µM
TGI [53]: 24.2 µM
GI50 [22]: 2.93 µM
TGI [22]: 13.5 µM
GI50 [23]: 3.14 µM
TGI [23]: 9.27 µM
GI50 [54]: 4.18 µM
TGI [54]: 31.6 µM
GI50 [25]: 13.9 µM
TGI [25]: 29.5 µM
GI50 [26]: 9.86 µM
TGI [26]: 28.5 µM
GI50 [28]: 5.08 µM
TGI [28]: 74 µM
GI50 [29]: 1.22 µM
TGI [29]: 7.75 µM
GI50 [30]: 4.7 µM
TGI [30]: 18 µM
GI50 [55]: 2.89 µM
TGI [55]: 9.28 µM
GI50 [31]: 20.4 µM
TGI [31]: 42.6 µM
GI50 [32]: 11.9 µM
TGI [32]: 24.3 µM
GI50 [34]: 3.7 µM
TGI [34]: 14.4 µM
GI50 [35]: 2.41 µM
TGI [35]: 12 µM
GI50 [36]: 16.6 µM
TGI [36]: > 100 µM
GI50 [37]: 2.7 µM
TGI [37]: 14.6 µM
GI50 [38]: 3.86 µM
TGI [38]: 15.6 µM
GI50 [39]: 5.18 µM
TGI [39]: 19.6 µM
GI50 [40]: 17.8 µM
TGI [40]: 31.9 µM
GI50 [42]: 9.8 µM
TGI [42]: 21.9 µM
GI50 [43]: 5.81 µM
TGI [43]: 24.1 µM
GI50 [44]: 15.3 µM
TGI [44]: 31.8 µM
GI50 [45]: 19.1 µM
TGI [45]: > 100 µM
GI50 [46]: 3.68 µM
TGI [46]: 19 µM
GI50 [47]: 2.95 µM
TGI [47]: 15.6 µM
GI50 [48]: 5.54 µM
TGI [48]: 17.9 µM
